Values joined by “and” are separate entries in the source; they are usually repeats but may differ in a detail not shown here. Identical values can stand only once. Like-named read-outs stand apart in the source and are kept apart here.
Assays:
Plasmodium berghei ANKA [1] = test: Suppressive modified test in the mouse model of experimental cerebral malaria; assay type: in vivo, C57BL/6 mice infected with P. berghei ANKA; conditions: for Parasitemia ± SD, 5th dpi / % Reduction of parasitemia, 5th dpi / % Reduction of parasitemia, 7th dpi / Parasitemia ± SD, 7th dpi: suppressive test, 10 mg/Kg oral for five days from 4 h after infection
Protocol: The animals (n = 5/cage) were housed in ALESCO® climate-controlled cabinets with controlled air flow, a temperature of 22 ± 2 °C and light control, respecting the animals’ circadian rhythm (light/dark cycle of 12 h), with standard rodent food and water ad libitum.
To carry out the proposed experiments, the murine model of ECM was used to assess the antimalarial activity of the compounds. Plasmodium berghei ANKA was kindly provided by Claudio Romero Marinho (Federal University of São Paulo-Brazil), and was used to conduct the infections which were performed by intraperitoneal (i.p.) injection of 10^5 parasitized red blood cells (pRBCs) obtained from infected donor mice, as previously described. Reduced responsiveness to external stimuli, ataxia, paralysis, coma, and/or convulsions were considered clinical signals of ECM [44].
In the suppressive modified test, mice were treated daily by oral gavage for five consecutive days, starting four hours after infection.
Parasitemia was monitored using giemsa-stained blood smears and the inhibition of parasite multiplication (IPM) was calculated by the formula: [(A–B)/A] × 100, where A = parasitemia of the PbA, and B = parasitemia of the group treated with the compounds. The clinical symptoms were evaluated using the rapid murine coma and behavior scale (RMCBS) from day 5 p.i. being maintained until the end of experimentation. The RMCBS consists of 10 parameters (gait, balance, motor performance, body position, limb strength, touch escape, pinna reflex, toe pinch, aggression, and grooming). Each parameter is scored 0 to 2, with 0 being the lowest function and 2 being the highest. Animals with clinical score ≤ 5 were euthanized. The survival rate (SR) was calculated based on the number of alive animals after 14 days of clinical evaluation. […]

Plasmodium berghei ANKA [2] = test: Curative test in the mouse model of experimental cerebral malaria; assay type: in vivo, C57BL/6 mice infected with P. berghei ANKA; conditions: for % Reduction of parasitemia, 5th dpi / Parasitemia ± SD, 5th dpi / % Reduction of parasitemia, 7th dpi / Parasitemia ± SD, 7th dpi: 10 mg/Kg oral, day 3 to 7 p.i.
[3] = system: Plasmodium falciparum W2 strain (CQ-resistant); test: In vitro antiplasmodial activity, SYBR test; assay type: cell-based; conditions: for SI (selectivity index): ratio between cytotoxic (WI-26-VA4) and antiplasmodial (W2) activities
Protocol: Continuous culture was maintained as previously described. In vitro antiplasmodial activity of the seven compounds against the P. falciparum culture was evaluated using the SYBR test as previously described. Compounds were diluted to concentrations ranging from 10 to 0.0001 μM. […] The plate was read in a fluorometer (Fluoroskan Ascent, Thermo Laboratories) with excitation at 485 nm and an emission of […]. All experiments were performed in triplicate. The results were expressed as the mean of minimum lethal dose for 50% of the culture (IC50).
Selectivity index (SI) is the ratio between the cytotoxic and antiplasmodial activities of each compound tested. The values greater than 10 were considered indicative of lack of cytoxicity, whereas the substances with values below 10 were considered toxic.

[4] = system: human pulmonary fibroblast cells WI-26VA4; test: In vitro cytotoxicity on mammalian cells, MTT assay; assay type: cell-based; conditions: read-out: WI-26-VA4 IC50 ± SD
Protocol: In vitro cytotoxicity of the compounds was assessed against human pulmonary fibroblast cells WI-26VA4 (ATCC CCL-95.1, USA), by 3-(4,5-dimethyl-2-thiazolyl)-2, 5-diphenyl-2H-tetrazolium bromide (MTT assay). Cells were cultured in a RPMI-1640 medium supplemented with 10% heat-inactivated fetal bovine serum in a 96-well plate. Compounds were diluted in different concentrations ranging from 100 to 1 μM and incubated with the cells for 48 h in a 5% CO2 atmosphere at 37 °C. The optical density was determined at 540 nm […] (Spectra Max340PC384, Molecular Devices, Sunnyvale, CA, USA). The minimum lethal dose for 50% of the cells (IC50) was determined as previously described.

[5] = system: peritoneal macrophages of BALB/c mice; test: Cytotoxicity on peritoneal macrophages, MTT method; assay type: cell-based; conditions: 18 to 150 μM, 48 h
Protocol: Macrophages obtained from the peritoneal cavity of BALB/c mice previously inoculated with 3% thioglycollate medium for the evaluation of cell viability were used. The macrophages were seeded in culture bottles with a RPMI-1640 medium supplemented with 2 mM L-glutamine, 100 µg/mL antibiotics (streptomycin and penicillin), 5% fetal bovine serum (FBS) and kept in an incubator at 5% CO2 atmosphere at 37 °C until the day of the test. The protocol was approved by the Ethical Committee for Animal Research of Federal University of Juiz de Fora (n° 007/2018-CEUA).
Cytotoxicity was assessed by cell viability using the MTT method. Briefly, the macrophages at 2 × 10^6 cells/well were transferred to 96-well microplates and treated with compound 10 at concentrations of 18 to 150 μM. For the negative control, cells were treated only with 0.06% DMSO (vehicle). The cells were incubated for 48 h at 37 °C and 5% CO2 atmosphere. Absorbance was read at 570 nm and cell viability (%) of macrophages was obtained by the following formula: % viable cells = [(AUSample)/AU0.06% DMSO] × 100, where: AUSample: Absorbance was measured after treatment of cells with the sample; AU0.06% DMSO: Absorbance was measured after treatment of cells with 0.06% DMSO. The experiment was performed in triplicate.

[6] = system: NO production in murine peritoneal macrophages; test: NO production by LPS/IFN-γ stimulated macrophages, Griess method; assay type: cell-based, BALB/c mice; conditions: macrophages stimulated with LPS and IFN-γ, 18 to 150 μM, 48 h, p < 0.05
Protocol: NO production was determined in the culture supernatants of macrophages after being incubated for 48 h in the presence of compound 10 ([…]) and stimulated with LPS at 1 μg/mL and IFN-γ at 1 ng/mL. Negative control was stimulated with LPS and IFN-γ and treated with 0.06% DMSO (vehicle). The cells were incubated for 48 h at 37 °C and 5% CO2 atmosphere. Subsequently, NO production was evaluated by the Griess method (an indirect NO measurement by nitrite dosing) in the recovered culture supernatant from the 48 h stimuli and treatment as described by. The quantity of NO (μM) was determined by comparison with a standard sodium nitrite solution. The spectrophotometric measurement was performed at 540 nm and the experiment was performed in triplicate.

[7] = suppressive treatment regimen, 10 mg/kg oral
[8] = Plasmodium falciparum, W2 strain (chloroquine-resistant), SYBR test, triplicate, read-out: P. falciparum IC50 ± SD
[9] = WI26VA4, human fibroblasts, MTT, 48 h, highest concentration 100 μM

Molecule	Parasitemia ± SD, 5th dpi (Plasmodium berghei ANKA [1])	% Reduction of parasitemia, 7th dpi (Plasmodium berghei ANKA [1]) [%]	Parasitemia ± SD, 7th dpi (Plasmodium berghei ANKA [1])	% Reduction of parasitemia, 5th dpi (Plasmodium berghei ANKA [2]) [%]	Parasitemia ± SD, 5th dpi (Plasmodium berghei ANKA [2])	% Reduction of parasitemia, 7th dpi (Plasmodium berghei ANKA [2]) [%]	Parasitemia ± SD, 7th dpi (Plasmodium berghei ANKA [2])	IC50 [3, 8] [nM]	SI (selectivity index) [3]	IC50 [4, 9] [µM]	Prevention of the development of CM (share of animals) (Plasmodium berghei ANKA [2]; 10 mg/kg oral)	further results
COC(=O)[C@@H]1Cc2c([nH]c3ccccc23)[C@@H](c2ccccc2OC)N1 [Compound 4, Methyl (1R,3S)-1-(2-Methoxy)-2,3,4,9-tetrahydro-1H-pyrido[3,4-b]indole-3-carboxylate]	1.88 ± 2.46	9.78	6.18 ± 4.75	75.16	0.79 ± 0.63	20.00	5.48± 3.64	1040 ± 21	>96	> 100	–	% Reduction of parasitemia, 5th dpi (Plasmodium berghei ANKA [1]; 10 mg/kg): 40% and 40.88%; Protection against CM (share of animals) (Plasmodium berghei ANKA [1]; [7]): 60%; Animals alive until the 14th dpi (without CM) (Plasmodium berghei ANKA [2]; 10 mg/kg oral): 90%
COC(=O)[C@@H]1Cc2c([nH]c3ccccc23)[C@H](c2ccccc2Cl)N1 [Compound 5, Methyl (1S,3S)-1-(2-Chloro)-2,3,4,9-tetrahydro-1H-pyrido[3,4-b]indole-3-carboxylate]	–	–	–	0.00	5.00 ± 1.59	0	7.20 ± 4.57	1410 ± 18	>71	> 100	No protective effect	–
COC(=O)[C@@H]1Cc2c([nH]c3ccccc23)[C@H](c2ccccc2OC)N1 [Compound 3, Methyl (1S,3S)-1-(2-Methoxy)-2,3,4,9-tetrahydro-1H-pyrido[3,4-b]indole-3-carboxylate]	3.56 ± 2.57	0	7.96 ± 3.26	41.19	1.87 ± 1.02	0	7.50 ± 2.49	710 ± 12	>141	> 100	–	% Reduction of parasitemia, 5th dpi (Plasmodium berghei ANKA [1]): 0.00%; Inhibition of parasite growth (in words) (Plasmodium berghei ANKA [1]; [7]): not effective
CCN(CC)c1ccc(C2NCCc3c2[nH]c2ccccc32)c(O)c1 (stereo not drawn) [Compound 8, 5-(Diethylamino)-2-(2,3,4,9-tetrahydro-1H-pyrido[3,4-b]indol-1-yl)phenol]	–	–	–	–	–	–	–	1820 ± 11	>55	> 100	–	–
CCN(CC)CCCC(C)Nc1ccnc2cc(Cl)ccc12 (stereo not drawn) [CQ, chloroquine, reference compound]	0.24 ± 0.05	96.1	0.21 ± 0.27	–	–	96.1	0.21 ± 0.27	–	–	–	–	% Reduction of parasitemia, 5th dpi (Plasmodium berghei ANKA [1]): 96.5%; IC50 ([3]; Plasmodium falciparum, W2, read-out: P. falciparum IC50 ± SD): 590 ± 15 nM; IC50 ([4]; Homo sapiens, WI26VA4, 48 h): > 100 µM
COC(=O)[C@@H]1Cc2c([nH]c3ccccc23)[C@@H](c2ccccc2Cl)N1 [Compound 6, Methyl (1R,3S)-1-(2-Chloro)-2,3,4,9-tetrahydro-1H-pyrido[3,4-b]indole-3-carboxylate]	–	–	–	64.36	1.13 ± 0.48	–	–	670 ± 19	>149	> 100	No protective effect	–
COc1cc(-c2nccc3c2[nH]c2ccccc23)cc(OC)c1OC [Compound 10, 1-(3,4,5-Trimethoxyphenyl)-9H-pyrido[3,4-b]indole]	0.57 ± 0.94	45.69	3.72 ± 3.93	–	1.02 ± 0.93	0	8.37 ± 2.26	510 ± 11	>196	> 100	70%	% Reduction of parasitemia, 5th dpi (Plasmodium berghei ANKA [1]; 10 mg/kg): 82% and 82.07%; % Reduction of parasitemia, 5th dpi (Plasmodium berghei ANKA [2]; 10 mg/kg): 67.9% and 67.92%; Toxicity for peritoneal macrophages (cell viability, MTT) [5]: no toxicity; NO levels (nitrite equivalent) [6]: reduce NO levels at all concentrations tested
artemisinin [reference compound]	–	–	–	–	–	–	–	–	–	–	–	IC50 ([3]; W2 strain (chloroquine-resistant), SYBR test, triplicate, read-out: P. falciparum IC50 ± SD): 95 ± 10 nM; IC50 ([4]; human fibroblasts, MTT, 48 h, highest concentration 100 μM): > 100 µM
COc1cc(C2NCCc3c2[nH]c2ccccc32)cc(OC)c1OC (stereo not drawn) [Compound 9, 1-(3,4,5-Trimethoxyphenyl)-2,3,4,9-tetrahydro-1H-pyrido[3,4-b]indole]	–	–	–	–	–	–	–	1120 ± 14	>89	> 100	–	–

Source: article PMC9781199, “Rational-Based Discovery of Novel β-Carboline Derivatives as Potential Antimalarials: From In Silico Identification of Novel Targets to Inhibition of Experimental Cerebral Malaria” (Pathogens, 2022)
